Reference: patent publication US20240208992A1, “MACROCYCLES AS CFTR MODULATORS” (Idorsia Pharmaceuticals Ltd, priority 2021, published 2024)

Target: human F508del-CFTR (Homo sapiens, UniProt P13569, DEL508-508)
Assay: F508del-CFTR cell surface expression (corrector activity), DiscoveRx ß-galactosidase complementation chemiluminescence assay in recombinant U2OS cell line;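 note: U2OS cells co-expressing ProLink-tagged F508del-CFTR and a membrane-anchored enzyme acceptor, where more surface CFTR restores β-galactosidase activity measured by chemiluminescence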
Conditions: for EC50: EC50, F508del-CFTR cell surface expression, U2OS cells, 16h compound incubation, geomean values; for Emax: in relation to Emax of corrector lumacaftor (=100%), arithmetic mean values

Chain of human F508del-CFTR (P13569 with tags, fused parts or gaps DEL508-508): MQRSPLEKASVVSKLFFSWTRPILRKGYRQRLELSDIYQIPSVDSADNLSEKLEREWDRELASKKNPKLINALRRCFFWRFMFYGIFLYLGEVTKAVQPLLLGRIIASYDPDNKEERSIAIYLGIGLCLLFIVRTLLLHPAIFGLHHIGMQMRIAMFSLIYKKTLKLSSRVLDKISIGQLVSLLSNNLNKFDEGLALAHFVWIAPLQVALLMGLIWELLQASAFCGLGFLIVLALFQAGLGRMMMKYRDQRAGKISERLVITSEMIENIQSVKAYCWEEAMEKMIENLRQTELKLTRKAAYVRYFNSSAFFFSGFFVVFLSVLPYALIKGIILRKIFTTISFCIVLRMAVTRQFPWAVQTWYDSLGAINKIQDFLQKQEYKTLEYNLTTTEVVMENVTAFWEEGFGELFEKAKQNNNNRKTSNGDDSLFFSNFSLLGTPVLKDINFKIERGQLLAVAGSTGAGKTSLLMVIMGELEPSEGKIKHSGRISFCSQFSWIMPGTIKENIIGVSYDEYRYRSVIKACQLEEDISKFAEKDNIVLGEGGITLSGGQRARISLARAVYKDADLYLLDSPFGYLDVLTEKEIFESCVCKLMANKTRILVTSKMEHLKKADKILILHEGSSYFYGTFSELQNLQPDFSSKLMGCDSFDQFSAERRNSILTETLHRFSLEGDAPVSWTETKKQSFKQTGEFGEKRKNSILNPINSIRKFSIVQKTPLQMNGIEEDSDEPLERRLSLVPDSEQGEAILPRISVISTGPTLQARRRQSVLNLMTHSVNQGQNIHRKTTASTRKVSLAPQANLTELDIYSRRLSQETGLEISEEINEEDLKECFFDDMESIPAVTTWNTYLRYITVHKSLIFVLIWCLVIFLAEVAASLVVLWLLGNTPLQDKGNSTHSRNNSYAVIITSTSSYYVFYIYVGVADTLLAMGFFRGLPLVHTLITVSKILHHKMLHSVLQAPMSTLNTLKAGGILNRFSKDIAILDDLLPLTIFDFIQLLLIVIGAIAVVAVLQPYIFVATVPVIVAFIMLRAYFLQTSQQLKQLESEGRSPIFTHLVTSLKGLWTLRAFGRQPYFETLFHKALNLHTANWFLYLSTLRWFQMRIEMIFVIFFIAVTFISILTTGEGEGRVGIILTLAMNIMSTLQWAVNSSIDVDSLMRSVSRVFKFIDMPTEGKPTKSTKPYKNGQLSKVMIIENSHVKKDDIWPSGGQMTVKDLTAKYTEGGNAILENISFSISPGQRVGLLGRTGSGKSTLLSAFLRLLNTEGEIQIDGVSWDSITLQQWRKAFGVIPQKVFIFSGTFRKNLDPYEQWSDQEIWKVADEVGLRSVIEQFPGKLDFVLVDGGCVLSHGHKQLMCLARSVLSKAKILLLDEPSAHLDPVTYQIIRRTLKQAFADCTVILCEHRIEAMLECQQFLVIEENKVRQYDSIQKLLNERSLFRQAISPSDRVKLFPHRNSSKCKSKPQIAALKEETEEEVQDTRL

Row | SMILES | EC50 [nM] | Emax (U2OS) [%] | Emax [%]
1 | CC(C)C[C@H]1C(=O)N(C)C2(CC2)C(=O)N[C@H](Cc2ccccc2)COc2cnc3ccccc3c2C(=O)N[C@H](C(=O)NCCc2cccc(-c3ncccn3)c2)CC(=O)N1C [Example 502, (3′S,7′S,13′R)-13′-benzyl-7′-isobutyl-6′,9′-dimethyl-1′,5′,8′,11′-tetraoxo-N-(3-(pyrimidin-2-yl)phenethyl)-2′,3′,4′,5′,6′,7′,8′,9′,11′,12′,13′,14′-dodecahydro-1′H-spiro[cyclopropane-1,10′-[1]oxa[4,7,10,14]tetraazacycloheptadecino[17,16-c]quinoline]-3′-carboxamide] | 752 | 295 | 
2 | COc1cccc(CCNC(=O)[C@@H]2CC(=O)N(C)[C@@H](CC(C)C)C(=O)N(C)C(C)(C)C(=O)N[C@H](Cc3ccccc3)COc3cnc4ccccc4c3C(=O)N2)c1 [Example 503, (3S,7S,13R)-13-benzyl-7-isobutyl-N-(3-methoxyphenethyl)-6,9,10,10-tetramethyl-1,5,8,11-tetraoxo-1,2,3,4,5,6,7,8,9,10,11,12,13,14-tetradecahydro-[1]oxa[4,7,10,14]tetraazacycloheptadecino[17,16-c]quinoline-3-carboxamide] | 772 | 137 | 
3 | CCN1C(=O)C[C@@H](C(=O)NCCc2cc(C)no2)NC(=O)c2c(cnc3ccccc23)OC[C@@H](Cc2ccccc2)NC(=O)[C@H]2CCCCN2C(=O)[C@@H]1CC(C)C [Example 506, (9S,13S,19aR,22R)-22-benzyl-12-ethyl-13-isobutyl-N-(2-(3-methylisoxazol-5-yl)ethyl)-7,11,14,20-tetraoxo-7,8,9,10,11,12,13,14,17,18,19,19a,20,21,22,23-hexadecahydro-16H-pyrido[2′,1′:6,7][1]oxa[4,7,10,14]tetraazacycloheptadecino[17,16-c]quinoline-9-carboxamide] | 318 | 211 | 
4 | COc1cccc(CCNC(=O)[C@@H]2CC(=O)N(C)[C@@H](CC(C)C)C(=O)N(C)CC(=O)N[C@H](Cc3ccccc3)COc3ccc4ncc(F)cc4c3C(=O)N2)c1 [Example 507, (3S,7S,13R)-13-benzyl-20-fluoro-7-isobutyl-N-(3-methoxyphenethyl)-6,9-dimethyl-1,5,8,11-tetraoxo-1,2,3,4,5,6,7,8,9,10,11,12,13,14-tetradecahydro-[1]oxa[4,7,10,14]tetraazacycloheptadecino[16,17-f]quinoline-3-carboxamide] | 469 | 337 | 
5 | Cc1cc(CCNC(=O)[C@@H]2CC(=O)N(C)[C@@H](CC(C)C)C(=O)N(C)[C@H](C3CC3)C(=O)N[C@H](Cc3ccccc3)COc3ccc4ccccc4c3C(=O)N2)on1 [Example 508, (3S,7S,10R,13R)-13-benzyl-10-cyclopropyl-7-isobutyl-6,9-dimethyl-N-(2-(3-methylisoxazol-5-yl)ethyl)-1,5,8,11-tetraoxo-1,2,3,4,5,6,7,8,9,10,11,12,13,14-tetradecahydronaphtho[1,2-p][1]oxa[4,7,10,14]tetraazacycloheptadecine-3-carboxamide] | 382 | 378 | 
6 | COc1cccc(CCNC(=O)[C@@H]2CC(=O)N(C)[C@@H](CC(C)C)C(=O)N3CCN(c4ccccc4)C[C@@H]3C(=O)N[C@H](Cc3ccccc3)COc3cnc4ccccc4c3C(=O)N2)c1 [Example 509, (9S,13S,19aR,22R)-22-benzyl-13-isobutyl-N-(3-methoxyphenethyl)-12-methyl-7,11,14,20-tetraoxo-18-phenyl-7,8,9,10,11,12,13,14,17,18,19,19a,20,21,22,23-hexadecahydro-16H-pyrazino[2′,11:6,7][1]oxa[4,7,10,14]tetraazacycloheptadecino[17,16-c]quinoline-9-carboxamide] | 75 | 327 | 
7 | COc1nccc2c1C(=O)N[C@H](C(=O)NCCc1nc(C3CC3)no1)CC(=O)N(C)[C@@H](CC(C)C)C(=O)N1CCCC[C@@H]1C(=O)N[C@H](Cc1ccccc1)CO2 [Example 511, (7S,11S,17aR,20R)-20-benzyl-N-(2-(3-cyclopropyl-1,2,4-oxadiazol-5-yl)ethyl)-11-isobutyl-4-methoxy-10-methyl-5,9,12,18-tetraoxo-5,6,7,8,9,10,11,12,15,16,17,17a,18,19,20,21-hexadecahydro-14H-dipyrido[2,1-f:3′,4′-p][1]oxa[4,7,10,14]tetraazacycloheptadecine-7-carboxamide] | 624 | 314 | 
8 | COc1cccc(CCNC(=O)[C@@H]2CC(=O)N(C)[C@@H](CC(C)C)C(=O)N(C)CC(=O)N[C@H](Cc3ccccc3)COc3nccc(OC)c3C(=O)N2)c1 [Example 513, (3R,9S,13S)-3-benzyl-9-isobutyl-16-methoxy-N-(3-methoxyphenethyl)-7,10-dimethyl-5,8,11,15-tetraoxo-2,3,4,5,6,7,8,9,10,11,12,13,14,15-tetradecahydropyrido[3,2-p][1]oxa[4,7,10,14]tetraazacycloheptadecine-13-carboxamide] | 815 | 169 | 
9 | COc1cc2c(cn1)OC[C@@H](Cc1ccccc1)NC(=O)[C@H]1CCCCN1C(=O)[C@H](CC(C)C)N(C)C(=O)C[C@@H](C(=O)NCCc1cc(C3CC3)no1)NC2=O [Example 517, (7S,11S,17aR,20R)-20-benzyl-N-(2-(3-cyclopropylisoxazol-5-yl)ethyl)-11-isobutyl-3-methoxy-10-methyl-5,9,12,18-tetraoxo-5,6,7,8,9,10,11,12,15,16,17,17a,18,19,20,21-hexadecahydro-14H-dipyrido[2,1-f:2′,3′-p][1]oxa[4,7,10,14]tetraazacycloheptadecine-7-carboxamide] | 986 | 222 | 
10 | COc1cc2c(cn1)OC[C@@H](Cc1ccccc1)NC(=O)[C@H]1CCCCN1C(=O)[C@H](CC(C)C)N(C)C(=O)C[C@@H](C(=O)NCCc1cc(C3CC3)on1)NC2=O [Example 518, (7S,11S,17aR,20R)-20-benzyl-N-(2-(5-cyclopropylisoxazol-3-yl)ethyl)-11-isobutyl-3-methoxy-10-methyl-5,9,12,18-tetraoxo-5,6,7,8,9,10,11,12,15,16,17,17a,18,19,20,21-hexadecahydro-14H-dipyrido[2,1-f:2′,3′-p][1]oxa[4,7,10,14]tetraazacycloheptadecine-7-carboxamide] | 655 |  | 189

Second part, the molecule after the results:

Row | EC50 [nM] | Emax (U2OS) [%] | Emax [%] | SMILES
11 | 198 | 308 |  | CC(C)C[C@H]1C(=O)N2CCCC[C@@H]2C(=O)N[C@H](Cc2ccccc2)COc2cnc3c(F)cccc3c2C(=O)N[C@H](C(=O)NCCc2nc(C3CC3)no2)CC(=O)N1C [Example 501, (9S,13S,19aR,22R)-22-benzyl-N-(2-(3-cyclopropyl-1,2,4-oxadiazol-5-yl)ethyl)-3-fluoro-13-isobutyl-12-methyl-7,11,14,20-tetraoxo-7,8,9,10,11,12,13,14,17,18,19,19a,20,21,22,23-hexadecahydro-16H-pyrido[2′,11:6,7][1]oxa[4,7,10,14]tetraazacycloheptadecino[17,16-c]quinoline-9-carboxamide]
12 | 149 | 298 |  | CC(C)C[C@H]1C(=O)N2CCCC[C@@H]2C(=O)N[C@H](Cc2ccccc2)COc2ccc3ncccc3c2C(=O)N[C@H](C(=O)NCCc2cc(C3CC3)on2)CC(=O)N1C [Example 504, (9S,13S,19aR,22R)-22-benzyl-N-(2-(5-cyclopropylisoxazol-3-yl)ethyl)-13-isobutyl-12-methyl-7,11,14,20-tetraoxo-7,8,9,10,11,12,13,14,17,18,19,19a,20,21,22,23-hexadecahydro-16H-pyrido[2′,1′:6,7][1]oxa[4,7,10,14]tetraazacycloheptadecino[16,17-f]quinoline-9-carboxamide]
13 | 229 | 330 |  | CC(C)C[C@H]1C(=O)N2CCCC[C@@H]2C(=O)N[C@H](Cc2ccccc2)COc2ccc3ncccc3c2C(=O)N[C@H](C(=O)NCCc2nc(C3CC3)no2)CC(=O)N1C [Example 505, (9S,13S,19aR,22R)-22-benzyl-N-(2-(3-cyclopropyl-1,2,4-oxadiazol-5-yl)ethyl)-13-isobutyl-12-methyl-7,11,14,20-tetraoxo-7,8,9,10,11,12,13,14,17,18,19,19a,20,21,22,23-hexadecahydro-16H-pyrido[2′,1′:6,7][1]oxa[4,7,10,14]tetraazacycloheptadecino[16,17-f]quinoline-9-carboxamide]
14 | 108 | 256 |  | Cc1cc(CCNC(=O)[C@@H]2CC(=O)N(C)[C@@H](CC(C)C)C(=O)N3CCN(c4ccccc4)C[C@@H]3C(=O)N[C@H](Cc3ccccc3)COc3cnc4ccccc4c3C(=O)N2)on1 [Example 510, (9S,13S,19aR,22R)-22-benzyl-13-isobutyl-12-methyl-N-(2-(3-methylisoxazol-5-yl)ethyl)-7,11,14,20-tetraoxo-18-phenyl-7,8,9,10,11,12,13,14,17,18,19,19a,20,21,22,23-hexadecahydro-16H-pyrazino[2′,11:6,7][1]oxa[4,7,10,14]tetraazacycloheptadecino[17,16-c]quinoline-9-carboxamide]
15 | 300 | 316 |  | COc1nccc2c1C(=O)N[C@H](C(=O)NCCc1cc(C3CC3)on1)CC(=O)N(C)[C@@H](CC(C)C)C(=O)N1CCCC[C@@H]1C(=O)N[C@H](Cc1ccccc1)CO2 [Example 512, (7S,11S,17aR,20R)-20-benzyl-N-(2-(5-cyclopropylisoxazol-3-yl)ethyl)-11-isobutyl-4-methoxy-10-methyl-5,9,12,18-tetraoxo-5,6,7,8,9,10,11,12,15,16,17,17a,18,19,20,21-hexadecahydro-14H-dipyrido[2,1-f:3′,4′-p][1]oxa[4,7,10,14]tetraazacycloheptadecine-7-carboxamide]
16 | 170 | 304 |  | CC(C)C[C@H]1C(=O)N2CCCC[C@@H]2C(=O)N[C@H](Cc2ccccc2)COc2ccc3ncccc3c2C(=O)N[C@H](C(=O)NCCc2cc(C3CC3)no2)CC(=O)N1C [Example 514, (9S,13S,19aR,22R)-22-benzyl-N-(2-(3-cyclopropylisoxazol-5-yl)ethyl)-13-isobutyl-12-methyl-7,11,14,20-tetraoxo-7,8,9,10,11,12,13,14,17,18,19,19a,20,21,22,23-hexadecahydro-16H-pyrido[2′,11:6,7][1]oxa[4,7,10,14]tetraazacycloheptadecino[16,17-f]quinoline-9-carboxamide]
